Reference: patent publication US20240174618A1, “SUBSTITUTED (2-HETEROARYLOXYPHENYL)SULFONATES, SALTS THEREOF AND THEIR USE AS HERBICIDAL AGENTS” (Bayer Aktiengesellschaft, priority 2021, published 2024)

Experiments:
Format in all cases: in vivo
[1] = tested on: Echinochloa crus-galli (ECHCG); assay: B. Herbicidal post-emergence efficacy, ECHCG; conditions: rated visually after about 3 weeks
Summary of the method: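 Readout: visual % kill vs untreated, ~3 wk post-spray. Plants in sandy loam pots, treated at one-leaf stage; spray = WP/EC in water + 0.5% additive, 600 L/ha, dose ≤1280 g/ha.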

[2] = tested on: Alopecurus myosuroides (ALOMY); assay: A. Herbicidal pre-emergence efficacy, ALOMY; conditions: scored visually after about 3 weeks vs untreated controls
Summary of the method: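 Applied before emergence onto covering soil at rates of 1280 g/ha or less, using 600 L/ha spray water with 0.5% additive. Scoring: visual % efficacy after ~3 weeks, greenhouse.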

[3] = tested on: Zea mays (ZEAMX); assay: F. Post-emergence effect on useful plants, ZEAMX; conditions: useful plant
Experimental: (§1) Seeds of monocotyledonous and dicotyledonous weeds and crop plants were placed in sandy loam in plastic or organic planting pots, covered with soil and cultivated in a greenhouse under controlled growth conditions. 2 to 3 weeks after sowing, the test plants were treated at the one-leaf stage. The compounds of the invention, formulated in the form of wettable powders (WP) or as emulsion concentrates (EC), were then sprayed onto the green parts of the plants as aqueous suspension or emulsion with addition of 0.5% additive at a water application rate of 600 l/ha (converted). After the test plants had been kept in the greenhouse under optimum growth conditions for about 3 weeks, the activity of the preparations was rated visually in comparison to untreated controls.
(§2) For example, • 100% efficacy=plants have died, • 0% action=like untreated control plants.
Tables F1a to F4 below show the effects of selected compounds of the general formula (I) according to table 1 on various useful plants at an application rate corresponding to 320 g/ha or less, which were obtained by the experimental procedure mentioned above.

[4] = tested on: Lolium rigidum (LOLRI); assay: B. Herbicidal post-emergence efficacy, LOLRI
Experimental: (§3) Seeds of mono- and dicotyledonous weed plants were placed in plastic pots in sandy loam soil (doubly sown with in each case one species of mono- or dicotyledonous weed plants per pot), covered with soil and cultivated in a greenhouse under controlled growth conditions. 2 to 3 weeks after sowing, the test plants were treated at the one-leaf stage. The compounds of the invention, formulated in the form of wettable powders (WP) or as emulsion concentrates (EC), were applied onto the green parts of the plants as aqueous suspension or emulsion with addition of 0.5% additive at a water application rate of 600 liters per hectare (converted). After the test plants had been kept in the greenhouse under optimum growth conditions for about 3 weeks, the activity of the preparations was rated visually in comparison to untreated controls.
(§4) For example, • 100% efficacy=plants have died, • 0% efficacy=like untreated control plants
(§5) Tables B1a to B12c below show the effects of selected inventive compounds of the general formula (I) according to table 1 on various harmful plants at an application rate corresponding to 1280 g/ha or less, which were obtained by the experimental procedure mentioned above.

[5] = tested on: Zea mays (ZEAMX); assay: D. Pre-emergence effect on useful plants, ZEAMX; conditions: useful plant
Summary of the method: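 Seeds sown in pots and covered with soil; WP or EC formulations sprayed on the soil surface as aqueous suspension/emulsion with 0.5% additive at 600 l/ha water. Plants grown in greenhouse; crop damage scored visually after about 3 weeks as % versus untreated controls (100% = dead, 0% = like control).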

[6] = tested on: Alopecurus myosuroides (ALOMY); assay: B. Herbicidal post-emergence efficacy, ALOMY; conditions: 1280 g/ha, rated visually after about 3 weeks
Experimental: as §3, §4, §5

[7] = tested on: Pharbitis purpurea (PHBPU); assay: C. Herbicidal pre-emergence efficacy, PHBPU; conditions: 320 g/ha, scored after about 3 weeks
Excerpt: (§6) Seeds of monocotyledonous and dicotyledonous weed plants and crop plants were placed in plastic or organic planting pots and covered with soil. The compounds of the invention, formulated in the form of wettable powders (WP) or as emulsion concentrates (EC), were then applied to the surface of the covering soil as aqueous suspension or emulsion with addition of 0.5% additive at a water application rate equivalent to 600 l/ha (converted). After the treatment, the pots were placed in a greenhouse and kept under good growth conditions for the test plants. After about 3 weeks, the efficacy of the preparations was scored visually in comparison with untreated controls as percentages. For example, • 100% efficacy=plants have died, • 0% efficacy=like untreated control plants.
(§7) Tables C1a to C14b below show the effects of selected compounds of the general formula (I) according to table 1 on various harmful plants at an application rate corresponding to 320 g/ha or less, which were obtained by the experimental procedure mentioned above.

[8] = tested on: Matricaria inodora (MATIN); assay: C. Herbicidal pre-emergence efficacy, MATIN; conditions: scored after about 3 weeks
Excerpt: as §6, §7

[9] = tested on: Alopecurus myosuroides (ALOMY); assay: E. Herbicidal post-emergence efficacy, ALOMY; conditions: application rate 320 g/ha
Experimental: as §1, §2
Tables E1a to E12b below show the effects of selected compounds of the general formula (I) according to table 1 on various harmful plants at an application rate corresponding to 320 g/ha or less, which were obtained by the experimental procedure mentioned above.

| SMILES | Post-emergence efficacy against ECHCG in % ([1]; 320 g/ha) | Post-emergence efficacy against ECHCG in % ([1]; 1280 g/ha) | Pre-emergence efficacy against ALOMY ([2]; 1280 g/ha) | Post-emergence efficacy against ZEAMX in % ([3]; application rate 80 g/ha) | Post-emergence efficacy against LOLRI ([4]; 1280 g/ha) | Pre-emergence efficacy against ZEAMX in % ([5]; application rate 80 g/ha) | other results |
| --- | --- | --- | --- | --- | --- | --- | --- |
| Cc1cccc(Oc2ncc(Cl)cn2)c1OS(=O)(=O)CCCC(F)(F)F [Example I-28, 2-[(5-Chloropyrimidin-2-yl)oxy]-6-methylphenyl 4,4,4-trifluorobutane-1-sulfonate] | 90% | 100% | 100% | – | – | – | – |
| CCCCCS(=O)(=O)Oc1ccccc1Oc1ncc(Cl)cn1 [Example I-24] | – | 100% | – | 20% | 90% | 0% | Pre-emergence efficacy against ZEAMX in % ([5]; application rate 320 g/ha): 0% |
| CCS(=O)(=O)Oc1ccccc1Oc1ncc(Cl)cn1 [Example I-16] | – | 90% | – | – | – | – | Post-emergence efficacy against ALOMY in % [6]: 90% |
| C=CCCS(=O)(=O)Oc1c(F)cccc1Oc1ncc(Cl)cn1 [Example I-50] | – | 90% | – | – | – | 0% | – |
| CC(C)CCS(=O)(=O)Oc1ccccc1Oc1ncc(Cl)cn1 [Example I-25] | 90% | 100% | – | – | 90% | 0% | – |
| O=S(=O)(CCCCCl)Oc1ccccc1Oc1ncc(Cl)cn1 [Example I-15] | 100% | 100% | – | – | 90% | – | Post-emergence efficacy against ECHCG in % ([1]; 80 g/ha): 90%; Pre-emergence efficacy against PHBPU [7]: 90%; Post-emergence efficacy against LOLRI ([4]; 320 g/ha): 90% |
| Cc1cccc(Oc2ncc(F)cn2)c1OS(=O)(=O)CCC(F)(F)F [Example I-45] | 100% | 100% | 100% | – | – | 0% | Post-emergence efficacy against ALOMY in % [6]: 90%; Pre-emergence efficacy against ALOMY ([2]; 320 g/ha): 90%; Pre-emergence efficacy against ZEAMX in % ([5]; application rate 320 g/ha): 20% |
| C=CCS(=O)(=O)Oc1ccccc1Oc1ncc(Cl)cn1 [Example I-36] | – | – | – | 0% | – | 0% | Post-emergence efficacy against ZEAMX in % ([3]; application rate 320 g/ha): 0% |
| O=S(=O)(CCC(F)=C(F)F)Oc1c(F)cccc1Oc1ncc(Cl)cn1 [Example I-70] | – | – | – | 20% | – | – | – |
| CCCS(=O)(=O)Oc1ccccc1Oc1ncc(Cl)cn1 [Example I-3] | – | 90% | 100% | 10% | – | – | Pre-emergence efficacy against MATIN ([8]; 320 g/ha): 90%; Pre-emergence efficacy against PHBPU [7]: 80%; Post-emergence efficacy against ALOMY in % [6]: 90%; Post-emergence efficacy against ALOMY in % [9]: 80%; Pre-emergence efficacy against ALOMY ([2]; 320 g/ha): 90% |
| O=S(=O)(CCC1CC1)Oc1c(F)cccc1Oc1ncc(Cl)cn1 [Example I-55] | 90% | 90% | – | – | – | 10% | Post-emergence efficacy against ALOMY in % [6]: 90% |
| O=S(=O)(CCC(F)=C(F)F)Oc1c(Cl)cccc1Oc1ncc(Cl)cn1 [Example I-73] | 90% | 100% | – | 20% | 90% | – | Post-emergence efficacy against ALOMY in % [6]: 90% |
| O=S(=O)(CCCC(F)(F)F)Oc1c(Br)cccc1Oc1ncc(Cl)cn1 [Example I-30] | 90% | 90% | – | – | – | – | – |
| O=S(=O)(CCl)Oc1ccccc1Oc1ncc(Cl)cn1 [Example I-9] | – | 90% | – | 20% | – | 0% | Pre-emergence efficacy against MATIN ([8]; 320 g/ha): 80%; Post-emergence efficacy against ZEAMX in % ([3]; application rate 320 g/ha): 20%; Pre-emergence efficacy against ZEAMX in % ([5]; application rate 320 g/ha): 20% |
| O=S(=O)(CCC(F)(F)F)Oc1c(Cl)cccc1Oc1ncc(Br)cn1 [Example I-32] | 90% | 100% | 90% | 20% | 90% | – | Post-emergence efficacy against ECHCG in % ([1]; 80 g/ha): 90%; Pre-emergence efficacy against MATIN ([8]; 320 g/ha): 80%; Post-emergence efficacy against ALOMY in % [6]: 90% |
| COCCS(=O)(=O)Oc1c(F)cccc1Oc1ncc(Cl)cn1 [Example I-52] | – | 90% | – | 0% | 90% | 0% | Post-emergence efficacy against ZEAMX in % ([3]; application rate 320 g/ha): 0% |
| O=S(=O)(CCCC(F)(F)C(F)(F)F)Oc1c(F)cccc1Oc1ncc(Cl)cn1 [Example I-68] | 90% | 100% | 90% | – | – | 10% | Pre-emergence efficacy against MATIN ([8]; 80 g/ha): 90%; Pre-emergence efficacy against MATIN ([8]; 320 g/ha): 100% |
| O=S(=O)(CCCC(F)(F)F)Oc1c(Cl)cccc1Oc1ncc(Cl)cn1 [Example I-39] | – | – | 100% | 20% | – | 0% | Pre-emergence efficacy against MATIN ([8]; 320 g/ha): 80%; Pre-emergence efficacy against PHBPU [7]: 90%; Pre-emergence efficacy against ALOMY ([2]; 320 g/ha): 90% |
| O=S(=O)(CCCC(F)(F)F)Oc1c(Cl)cccc1Oc1ncc(Br)cn1 [Example I-34] | 90% | 90% | – | – | – | – | – |
| O=S(=O)(CCC(F)(F)F)Oc1c(Br)cccc1Oc1ncc(Cl)cn1 [Example I-31] | – | 100% | 90% | – | – | – | – |
| O=S(=O)(CCCCl)Oc1cccc(F)c1Oc1ncc(Cl)cn1 [Example I-13] | – | 90% | – | 20% | – | 10% | Post-emergence efficacy against ZEAMX in % ([3]; application rate 320 g/ha): 20%; Pre-emergence efficacy against ZEAMX in % ([5]; application rate 320 g/ha): 20% |
| Cc1cccc(Oc2ncc(Cl)cn2)c1OS(=O)(=O)CC1CC(F)(F)C1 [Example I-74] | 100% | 100% | 90% | 0% | 100% | 0% | Post-emergence efficacy against ALOMY in % [6]: 90% |
| N#Cc1cccc(Oc2ncc(Cl)cn2)c1OS(=O)(=O)CCCC(F)(F)F [Example I-81] | – | – | – | – | – | 0% | Pre-emergence efficacy against PHBPU [7]: 100%; Post-emergence efficacy against ALOMY in % [9]: 90% |
| Cc1cccc(OS(=O)(=O)CCCCl)c1Oc1ncc(Cl)cn1 [Example I-12] | – | – | – | – | 90% | 20% | Post-emergence efficacy against LOLRI ([4]; 320 g/ha): 90% |
| Cc1cccc(Oc2ncc(F)cn2)c1OS(=O)(=O)CCCC(F)(F)F [Example I-46] | 90% | 100% | 100% | – | – | 0% | Post-emergence efficacy against ECHCG in % ([1]; 80 g/ha): 90%; Post-emergence efficacy against ALOMY in % [6]: 90% |
| O=S(=O)(CCC(F)(F)F)Oc1c(Br)cccc1Oc1ncc(F)cn1 [Example I-43] | 90% | 90% | 90% | 0% | – | 0% | Pre-emergence efficacy against MATIN ([8]; 320 g/ha): 80%; Post-emergence efficacy against ZEAMX in % ([3]; application rate 320 g/ha): 0% |
| Cc1cccc(Oc2ncc(Cl)cn2)c1OS(=O)(=O)CCC(F)(F)F [Example I-29] | 90% | 100% | 90% | – | 90% | – | – |
